According to US11773373B2, “Method for amplifying CD8+T cells and cell subpopulations thereof in-vitro” (Shanghai Innovative Chang'An Biological Technology Co., Ltd., priority 2017, dated 2023):

Tests used:
[1] = test system: central memory CD8+ T cells (TCM); test: Proliferation of the central memory subpopulation of CD8+ T cells of HIV-1 infected individuals; assay type: cell-based, human; settings: 7 days
Excerpt: (§1) 1. Peripheral blood mononuclear cells (PBMC) of HIV-1 infected individuals were isolated.
(§2) 2. CD8+ T cells were sorted using an EasySep™ Negative Selection Human CD8+ T cell Enrichment kit (Stemcell: 19053).
(§3) 3. The sorted CD8 cells were stained using Cell Proliferation Dye eFluor 670 (ebioscience: 65-0840-90).
(§4) 4. The cells were placed in a 96-well U-shaped bottom plate with 1×10^5 cells per well.
(§5) 5. The following stimulants and TLR agonists (invivoGen: tlr-kit1hw, human TLR1-9 Agonist KIT) were added in groups:
(§6) (The anti-human CD3 antibody and the anti-human CD28 antibody in the form of coated magnetic beads (CELLection Pan Mouse IgG Kit, Invitrogen: 11531D) were used to stimulate the cells, wherein the ratio of the cells to the magnetic beads was 1:1)
(§7) 6. The cells were cultured in the 96-well U-shaped bottom plate, and cultured in a cell incubator for 7 days.
(§8) 7. The cells were labeled with antibodies CD8 (BD: 561423), CD45RA (eBioscience: 25-0458-42) and CCR7 (eBioscience: 17-1979-42), and the influence of different TLR agonists on the proliferation of CD8+ T subpopulations (TNaive: Naive T cells, TCM: central memory T cells, TEM: effector memory T cells) was detected by a flow cytometer.

[2] = test system: effector memory T cells (TEM); test: Proliferation of the effector memory subpopulation of CD8+ T cells of healthy subjects; assay type: cell-based; settings: in combination with anti-human CD3 antibody, compared with anti-human CD3 beads alone, 7 days
Description: (§9) 1. Peripheral blood mononuclear cells (PBMC) of healthy subjects were isolated.
(§10) 2. CD8+ T cells were sorted using an EasySep™ Negative Selection Human CD8+ T cell Enrichment kit (stem cell: 19053).
as §3, §4, §5
(§11) (The anti-human CD3 antibody used was magnetic beads coated with the antibody (CELLection Pan Mouse IgG Kit, Invitrogen: 11531D), wherein the ratio of the cells to the magnetic beads was 1:1)
as §7
as §8, with “by” for “by a”, “cytometry.” for “cytometer.”

CD8+ T cells = test: Proliferation of sorted CD8+ T cells of healthy subjects (eFluor 670 dye, flow cytometry, 7 days); assay type: cell-based; settings: in combination with anti-human CD3 antibody, compared with magnetic beads coated with anti-human CD3 antibody alone
Excerpt: 1. Peripheral blood mononuclear cells (PBMC) of healthy subjects were isolated according to Example 1.
as §2, §3, §4, §5
(The anti-human CD3 antibody and the anti-human CD28 antibody used were magnetic beads coated with the antibodies (CELLection Pan Mouse IgG Kit, Invitrogen: 11531D), wherein the ratio of the cells to the magnetic beads was 1:1)
as §7
7. The proliferation of the CD8+ T cells was detected by a flow cytometer under the stimulation conditions of different TLR agonists. FIG. 1A is a diagram showing the proliferation of CD8 cells under the conditions of blank control (left panel) as well as an anti-human CD3 antibody and an anti-human CD28 antibody (right panel). FIG. 1B is a statistical chart showing the proliferation proportion of CD8 cells under different stimulation conditions.

[3] = test system: central memory CD8+ T cells (TCM); test: Proliferation of the central memory subpopulation of CD8+ T cells of healthy subjects; assay type: cell-based; settings: in combination with anti-human CD3 antibody, compared with anti-human CD3 beads alone, 7 days
Description: as §9, §10, §3, §4, §5, §11, §7
as §8, with “by” for “by a”, “cytometry.” for “cytometer.”

[4] = test system: effector memory T cells (TEM); test: Proliferation of the effector memory subpopulation of CD8+ T cells of HIV-1 infected individuals; assay type: cell-based, human; settings: 7 days
Excerpt: as §1, §2, §3, §4, §5, §6, §7, §8

[5] = added to anti-human CD3/28 beads, compared with anti-human CD3/28 beads
[6] = added to anti-human CD3 beads, compared with anti-human CD3 beads alone

Molecule | proliferation of central memory CD8+ T cells (TCM) [1, 5] | proliferation of central memory CD8+ T cells (TCM) [1, 6] | proliferation of effector memory T cells (TEM) [2] | proliferation of CD8+ T cells (CD8+ T cells) | proliferation of central memory CD8+ T cells (TCM) [3] | proliferation of effector memory T cells (TEM) [4, 5] | proliferation of effector memory T cells (TEM) [4, 6]
FSL-1 | further enhanced | more effectively stimulated | effectively stimulated | effectively stimulated | effectively stimulated | further enhanced | more effectively stimulated
Flagellin: TLR5 agonist, S. typhimurium Flagellin (invivoGen: tlrl-epstfla-5) (protein, UniProt P06179 2-495, looked up) Flagellin: AQVINTNSLSLLTQNNLNKSQSALGTAIERLSSGLRINSAKDDAAGQAIANRFTANIKGLTQASRNANDGISIAQTTEGALNEINNNLQRVRELAVQSANSTNSQSDLDSIQAEITQRLNEIDRVSGQTQFNGVKVLAQDNTLTIQVGANDGETIDIDLKQINSQTLGLDTLNVQQKYKVSDTAATVTGYADTTIALDNSTFKASATGLGGTDQKIDGDLKFDDTTGKYYAKVTVTGGTGKDGYYEVSVDKTNGEVTLAGGATSPLTGGLPATATEDVKNVQVANADLTEAKAALTAAGVTGTASVVKMSYTDNNGKTIDGGLAVKVGDDYYSATQNKDGSISINTTKYTADDGTSKTALNKLGGADGKTEVVSIGGKTYAASKAEGHNFKAQPDLAEAAATTTENPLQKIDAALAQVDTLRSDLGAVQNRFNSAITNLGNTVNNLTSARSRIEDSDYATEVSNMSRAQILQQAGTSVLAQANQVPQNVLSLLR | further enhanced | more effectively stimulated | effectively stimulated | effectively stimulated | effectively stimulated | further enhanced | more effectively stimulated
